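Briefly, cells in 96-well plates were exposed to five compound concentrations for 48 h, and endpoints were estimated by linear interpolation. Abbreviation: GI50, concentration required for 50% inhibition of growth.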 Activity calls are given as the source filed them. Cut-off read from the data, not from the text of the source: active = GI50 up to about 1.1 µM and inactive = higher.
Tests used:
Assay in all cases: NCI tumour cell line growth inhibition, 48 h
786-0 = tested on: 786-0
A498 = tested on: A498
A549 = tested on: A549
ACHN = tested on: ACHN
CAKI-1 = tested on: CAKI-1
CCRF-CEM = tested on: CCRF-CEM
COLO 205 = tested on: COLO 205
DU-145 = tested on: DU-145
EKVX = tested on: EKVX
HCC 2998 = tested on: HCC 2998
HCT-116 = tested on: HCT-116
HCT-15 = tested on: HCT-15
HL-60 = tested on: HL-60
HOP-62 = tested on: HOP-62
HT-29 = tested on: HT-29
Hs-578T = tested on: Hs-578T
IGROV-1 = tested on: IGROV-1
K562 = tested on: K562
KM12 = tested on: KM12
LOX IMVI = tested on: LOX IMVI
M14 = tested on: M14
MCF7 = tested on: MCF7
MDA-MB-231 = tested on: MDA-MB-231
MDA-MB-435 = tested on: MDA-MB-435
MDA-N = tested on: MDA-N
MOLT-4 = tested on: MOLT-4
Malme-3M = tested on: Malme-3M
NCI-H226 = tested on: NCI-H226
NCI-H23 = tested on: NCI-H23
NCI-H460 = tested on: NCI-H460
NCI-H522 = tested on: NCI-H522
NCI/ADR-RES = tested on: NCI/ADR-RES
OVCAR-3 = tested on: OVCAR-3
OVCAR-4 = tested on: OVCAR-4
OVCAR-5 = tested on: OVCAR-5
OVCAR-8 = tested on: OVCAR-8
PC-3 = tested on: PC-3
RPMI-8226 = tested on: RPMI-8226
RXF 393 = tested on: RXF 393
SF-268 = tested on: SF-268
SF-295 = tested on: SF-295
SF-539 = tested on: SF-539
SK-MEL-28 = tested on: SK-MEL-28
SK-MEL-2 = tested on: SK-MEL-2
SK-MEL-5 = tested on: SK-MEL-5
SK-OV-3 = tested on: SK-OV-3
SN12C = tested on: SN12C
SNB-19 = tested on: SNB-19
SNB-75 = tested on: SNB-75
SR = tested on: SR
SW-620 = tested on: SW-620
TK-10 = tested on: TK-10
U-251 = tested on: U-251
UACC-257 = tested on: UACC-257
UACC-62 = tested on: UACC-62
UO-31 = tested on: UO-31
HOP-92 = tested on: HOP-92

In the case of COC1(OC)CCCc2c1no[n+]2[O-], the GI50 (786-0) is reported as > 100 µM (inactive), the GI50 (A498) is reported as > 100 µM (inactive) and the GI50 (A549) is reported as > 100 µM (inactive). For the same compound, the GI50 (ACHN) was > 100 µM (inactive), the GI50 (CAKI-1) was > 100 µM (inactive) and the GI50 (CCRF-CEM) was > 100 µM (inactive). The GI50 (COLO 205) was > 100 µM (inactive), the GI50 (DU-145) was > 100 µM (inactive) and the GI50 (EKVX) was > 100 µM (inactive). For the same compound, the GI50 (HCC 2998) was > 100 µM (inactive), the GI50 (HCT-116) was > 100 µM (inactive) and the GI50 (HCT-15) was over 100 µM. The GI50 (HL-60) was > 100 µM (inactive), the GI50 (HOP-62) was > 100 µM (inactive) and the GI50 (HT-29) was > 100 µM (inactive). The GI50 (Hs-578T) was > 100 µM (inactive), the GI50 (IGROV-1) was > 100 µM (inactive) and the GI50 (K562) was > 100 µM (inactive). For the same compound, the GI50 (KM12) was > 100 µM (inactive), the GI50 (LOX IMVI) was > 100 µM (inactive) and the GI50 (M14) was > 100 µM (inactive). The GI50 (MCF7) was > 100 µM (inactive), the GI50 (MDA-MB-231) was > 100 µM (inactive) and the GI50 (MDA-MB-435) was > 100 µM (inactive). The GI50 (MDA-N) was > 100 µM (inactive), the GI50 (MOLT-4) was > 100 µM (inactive) and the GI50 (Malme-3M) was > 100 µM (inactive). The GI50 (NCI-H226) was > 100 µM (inactive), the GI50 (NCI-H23) was > 100 µM (inactive) and the GI50 (NCI-H460) was > 100 µM (inactive). For the same compound, the GI50 (NCI-H522) was > 100 µM (inactive), the GI50 (NCI/ADR-RES) was > 100 µM (inactive) and the GI50 (OVCAR-3) was > 100 µM (inactive). The GI50 (OVCAR-4) was > 100 µM (inactive), the GI50 (OVCAR-5) was > 100 µM (inactive) and the GI50 (OVCAR-8) was > 100 µM (inactive). The GI50 (PC-3) was > 100 µM (inactive), the GI50 (RPMI-8226) was > 100 µM (inactive) and the GI50 (RXF 393) was > 100 µM (inactive). The GI50 (SF-268) was > 100 µM (inactive), the GI50 (SF-295) was > 100 µM (inactive) and the GI50 (SF-539) was > 100 µM (inactive). For the same compound, the GI50 (SK-MEL-28) was > 100 µM (inactive), the GI50 (SK-MEL-2) was > 100 µM (inactive) and the GI50 (SK-MEL-5) was > 100 µM (inactive). For the same compound, the GI50 (SK-OV-3) was > 100 µM (inactive), the GI50 (SN12C) was > 100 µM (inactive) and the GI50 (SNB-19) was > 100 µM (inactive). The GI50 (SNB-75) was 79.4 µM (inactive), the GI50 (SR) was > 100 µM (inactive) and the GI50 (SW-620) was > 100 µM (inactive). The GI50 (TK-10) was > 100 µM (inactive), the GI50 (U-251) was > 100 µM (inactive) and the GI50 (UACC-257) was > 100 µM (inactive). For the same compound, the GI50 (UACC-62) was > 100 µM (inactive) and the GI50 (UO-31) was > 100 µM (inactive).

In the case of Cc1c(C#N)c(N)n(C2OC(CO)C(O)C(O)C2O)c(=S)c1C#N (centres undefined), the GI50 (786-0) is reported as > 100 µM (inactive), the GI50 (A498) is reported as > 100 µM (inactive) and the GI50 (A549) is reported as > 100 µM (inactive). The GI50 (ACHN) was > 100 µM (inactive), the GI50 (CCRF-CEM) was > 100 µM (inactive) and the GI50 (DU-145) was > 100 µM (inactive). For the same compound, the GI50 (EKVX) was > 100 µM (inactive), the GI50 (HCC 2998) was > 100 µM (inactive) and the GI50 (HCT-116) was > 100 µM (inactive). The GI50 (HCT-15) was over 100 µM, the GI50 (HL-60) was > 100 µM (inactive) and the GI50 (HOP-62) was > 100 µM (inactive). The GI50 (HOP-92) was > 100 µM (inactive), the GI50 (HT-29) was > 100 µM (inactive) and the GI50 (Hs-578T) was > 100 µM (inactive). The GI50 (IGROV-1) was > 100 µM (inactive), the GI50 (K562) was > 100 µM (inactive) and the GI50 (KM12) was > 100 µM (inactive). The GI50 (LOX IMVI) was > 100 µM (inactive), the GI50 (M14) was > 100 µM (inactive) and the GI50 (MCF7) was > 100 µM (inactive). The GI50 (MDA-MB-231) was > 100 µM (inactive), the GI50 (MDA-N) was > 100 µM (inactive) and the GI50 (MOLT-4) was > 100 µM (inactive). For the same compound, the GI50 (Malme-3M) was > 100 µM (inactive), the GI50 (NCI-H226) was > 100 µM (inactive) and the GI50 (NCI-H23) was > 100 µM (inactive). For the same compound, the GI50 (NCI-H460) was > 100 µM (inactive), the GI50 (NCI-H522) was > 100 µM (inactive) and the GI50 (OVCAR-3) was > 100 µM (inactive). The GI50 (OVCAR-4) was > 100 µM (inactive), the GI50 (OVCAR-5) was > 100 µM (inactive) and the GI50 (OVCAR-8) was > 100 µM (inactive). For the same compound, the GI50 (PC-3) was > 100 µM (inactive), the GI50 (RPMI-8226) was > 100 µM (inactive) and the GI50 (RXF 393) was > 100 µM (inactive). For the same compound, the GI50 (SF-268) was > 100 µM (inactive), the GI50 (SF-295) was > 100 µM (inactive) and the GI50 (SF-539) was > 100 µM (inactive). For the same compound, the GI50 (SK-MEL-28) was > 100 µM (inactive), the GI50 (SK-MEL-5) was > 100 µM (inactive) and the GI50 (SK-OV-3) was 6.47 µM (inactive). For the same compound, the GI50 (SN12C) was > 100 µM (inactive), the GI50 (SNB-19) was > 100 µM (inactive) and the GI50 (SNB-75) was > 100 µM (inactive). The GI50 (SR) was > 100 µM (inactive), the GI50 (SW-620) was > 100 µM (inactive) and the GI50 (TK-10) was > 100 µM (inactive). For the same compound, the GI50 (U-251) was > 100 µM (inactive), the GI50 (UACC-257) was > 100 µM (inactive) and the GI50 (UACC-62) was > 100 µM (inactive). For the same compound, the GI50 (UO-31) was > 100 µM (inactive).

In the case of CCOc1c2c(cc3c1C(=O)c1c(OC)cccc1C3=O)C=C(OC)CC2, the GI50 (786-0) is reported as > 25 µM (inactive), the GI50 (A498) is reported as > 25 µM (inactive) and the GI50 (A549) is reported as 13.5 µM (inactive). The GI50 (ACHN) was > 25 µM (inactive), the GI50 (CAKI-1) was > 25 µM (inactive) and the GI50 (CCRF-CEM) was 7.8 µM (inactive). For the same compound, the GI50 (COLO 205) was 21.6 µM (inactive), the GI50 (DU-145) was > 25 µM (inactive) and the GI50 (EKVX) was > 25 µM (inactive). For the same compound, the GI50 (HCT-116) was 17.4 µM (inactive), the GI50 (HCT-15) was 11.9 µM and the GI50 (HL-60) was 5.62 µM (inactive). The GI50 (HOP-62) was > 25 µM (inactive), the GI50 (HOP-92) was > 25 µM (inactive) and the GI50 (HT-29) was 10.3 µM (inactive). For the same compound, the GI50 (Hs-578T) was > 25 µM (inactive), the GI50 (IGROV-1) was 15.2 µM (inactive) and the GI50 (K562) was 6.87 µM (inactive). For the same compound, the GI50 (KM12) was 10.6 µM (inactive), the GI50 (LOX IMVI) was 16.8 µM (inactive) and the GI50 (M14) was 18.8 µM (inactive). For the same compound, the GI50 (MCF7) was 24.4 µM (inactive), the GI50 (MDA-MB-231) was > 25 µM (inactive) and the GI50 (MDA-MB-435) was 8.04 µM (inactive). The GI50 (MDA-N) was 6.49 µM (inactive), the GI50 (MOLT-4) was 8.71 µM (inactive) and the GI50 (Malme-3M) was 13.6 µM (inactive). The GI50 (NCI-H226) was > 25 µM (inactive), the GI50 (NCI-H23) was > 25 µM (inactive) and the GI50 (NCI-H460) was 13.3 µM (inactive). The GI50 (NCI-H522) was 10.4 µM (inactive), the GI50 (NCI/ADR-RES) was 23.2 µM (inactive) and the GI50 (OVCAR-3) was > 25 µM (inactive). The GI50 (OVCAR-4) was > 25 µM (inactive), the GI50 (OVCAR-5) was > 25 µM (inactive) and the GI50 (OVCAR-8) was > 25 µM (inactive). For the same compound, the GI50 (PC-3) was 17.8 µM (inactive), the GI50 (RPMI-8226) was 7.24 µM (inactive) and the GI50 (RXF 393) was 12 µM (inactive). The GI50 (SF-268) was > 25 µM (inactive), the GI50 (SF-295) was 10.7 µM (inactive) and the GI50 (SF-539) was > 25 µM (inactive). The GI50 (SK-MEL-28) was > 25 µM (inactive), the GI50 (SK-MEL-2) was > 25 µM (inactive) and the GI50 (SK-MEL-5) was 10.1 µM (inactive). The GI50 (SK-OV-3) was > 25 µM (inactive), the GI50 (SN12C) was > 25 µM (inactive) and the GI50 (SNB-19) was > 25 µM (inactive). The GI50 (SNB-75) was 8.28 µM (inactive), the GI50 (SR) was 7.45 µM (inactive) and the GI50 (SW-620) was 9.98 µM (inactive). The GI50 (TK-10) was > 25 µM (inactive), the GI50 (U-251) was 22.3 µM (inactive) and the GI50 (UACC-257) was > 25 µM (inactive). For the same compound, the GI50 (UACC-62) was 10.3 µM (inactive) and the GI50 (UO-31) was 10.9 µM (inactive).
